Measured values: patent US8575103B2, “Peptides and methods for inhibiting G alpha protein signaling” (The Board of Trustees of the University of Illinois, priority 2009, dated 2013)
“Also recorded” adds a separate entry of the source. Where no end group is shown, it is not given here.

Experiments:
RhoA = RhoA activation in platelets; format: cell-based, human; details: 250 μM peptide; induced by TRAP1 (10 μM), U46619 (0.5 μM) or ADP (10 μM)
Procedure: (§1) To further investigate the mechanism(s) by which G13SR2pep (SEQ ID NO:5) inhibited α11bβ3 integrin activation, the effect of G13SR2pep on calcium flux, RhoA activation, Src activation and changes in cAMP levels was determined using conventional assays.

human platelets = test: human platelet aggregation in platelet rich plasma (PRP); format: cell-based; details: PRP
kindlin-3 = biological target: T1, kindlin-3 (Homo sapiens, UniProt Q86UX7); test: peptide affinity column with solubilized human platelets, western blot for kindlin-3; format: binding; details: immunoblot, kindlin 3 (72 kD)
T1 construct: also purified whole talin (220 kD), the talin head domain (47 kD) and kindlin 3 (72 kD); endogenous in cells; host or cells: solubilized human platelets
Source text: (§2) On this basis, subsequent experiments examined whether G13SR2pep peptide (SEQ ID NO:5) does indeed directly interact with α11bβ3 and/or one of its associated proteins in human platelets. In this respect, platelet α11bβ3 integrin is known to exist in a complex with two cytoplasmic proteins, i.e., talin and kindlin-3 (Tadokoro, et al. (2003) Science 302:103-6; Moser, et al. (2008) Nature Med. 14:325-30). To determine whether G13SR2pep, (SEQ ID NO:5) interacts with any of these proteins (or with the entire α11bβ3, talin, kindlin-3 complex), peptide affinity columns using G13SR2pep (SEQ ID NO:5) were employed. The affinity purified protein(s) from solubilized human platelets that specifically bound to the G13SR2pep peptide were eluted, and analyzed by western blot for α11bβ3 integrin, talin and kindlin-3. In similar experiments, the eluates from a peptide column using the G13SR2-Random Peptide (SEQ ID NO:9) were also analyzed. Immunoblot analysis with the α11bβ3 antibodies (Abcam) detected two bands, one at 130 kD and the other at 115 kD in solubilized human platelets as well as in the elution fraction obtained from the G13SR2pep (SEQ ID NO:5) affinity column. […] This was supported by similar experiments using talin antibodies and the kindlin 3 antibody (Abcam).

CD1 mice = test: bleeding time in mice after intravenous administration; format: in vivo; details: 100 μl of 3.7 mM intravenously via tail vein, tail cut five minutes after administration
Procedure: Briefly, CD1 mice (25 grams) were anesthetized with sodium pentobarbital, and either 100 μl of vehicle or 100 μl of a vehicle solution containing 3.7 mM of each peptide or aspirin was administered intravenously via the tail vein. Five minutes following administration, the tail was cut 0.5 cm from the tip and immersed in PBS buffer (pH 7.4; 37EC). Cessation of bleeding was observed visually and the total bleeding time was recorded.

α11bβ3 integrin [1] = biological target: T2, α11bβ3 integrin (Homo sapiens, UniProt P05106+P08514+Q9Y490); test: peptide affinity column with solubilized human platelets, western blot for α11bβ3; format: binding; details: immunoblot, bands at 130 kD and 115 kD
T2 construct: detected two bands, one at 130 kD and the other at 115 kD in solubilized human platelets; endogenous in cells; host or cells: solubilized human platelets
Source text: as §2

Src = Src activation in platelets; format: cell-based, human; details: 250 μM peptide; induced by TRAP1 (10 μM), U46619 (0.5 μM) or ADP (10 μM)
Procedure: as §1

calcium mobilization = test: calcium flux / calcium mobilization in platelets; format: cell-based, human; details: 250 μM peptide; induced by TRAP1 (10 μM), U46619 (0.5 μM) or ADP (10 μM)
Procedure: as §1

cAMP levels = cAMP levels in human platelet-rich plasma; format: cell-based; details: 250 μM peptide
Procedure: as §1

talin = biological target: T3, talin (Homo sapiens, UniProt Q9Y490); test: peptide affinity column with solubilized human platelets, western blot for talin; format: binding
T3 construct: also purified whole talin (220 kD), the talin head domain (47 kD) and kindlin 3 (72 kD); endogenous in cells; host or cells: solubilized human platelets
T3 sequence (Q9Y490 1-433): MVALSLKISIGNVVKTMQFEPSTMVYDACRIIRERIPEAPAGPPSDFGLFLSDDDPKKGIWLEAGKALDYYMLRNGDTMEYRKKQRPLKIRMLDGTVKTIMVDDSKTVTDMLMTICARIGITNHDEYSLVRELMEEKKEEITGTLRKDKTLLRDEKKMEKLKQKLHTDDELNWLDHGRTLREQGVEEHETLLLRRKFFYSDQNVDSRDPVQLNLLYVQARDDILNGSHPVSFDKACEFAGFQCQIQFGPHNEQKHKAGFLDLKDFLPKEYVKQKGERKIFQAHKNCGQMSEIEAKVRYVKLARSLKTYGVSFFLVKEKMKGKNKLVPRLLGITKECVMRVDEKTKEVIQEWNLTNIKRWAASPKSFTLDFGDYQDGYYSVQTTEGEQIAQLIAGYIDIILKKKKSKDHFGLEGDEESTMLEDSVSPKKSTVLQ
Source text: as §2
Thus, the binding of G13SR2pep (SEQ ID NO:5) to the talin head domain serves as the basis for the ability of G13SR2pep to inhibit α11bβ3 integrin activation and platelet aggregation. As such, peptides or specific compounds fashioned to mimic or modify the switch region interaction with talin, α11bβ3 integrin or other α11bβ3 integrin-associated proteins would have profound effects on thrombosis and other integrin-linked disease processes.

α11bβ3 integrin [2] = test: platelet α11bβ3 integrin activation, FITC-PAC1 antibody binding by flow cytometry; format: cell-based, human; details: 150 μM peptide, 0.5 μM U46619, FITC-PAC1, compared to 500 μM Random Peptide
Procedure: The platelet count in human PRP was adjusted to 1×10^6 platelets/ml. The platelets were then labeled with FITC-conjugated PAC1 antibody against activated α11bβ3 integrin, and the samples were analyzed by flow cytometry in a Beckman Coulter CyAn II Flow Cytometer. Trace (a) depicts resting platelets labeled with FITC-PAC-1 antibody. Trace (b) depicts platelets stimulated with 0.5 μM U46619 and labeled with FITC-PAC1 antibody. Trace (c) depicts platelets incubated with 500 μM of the Random Peptide (SEQ ID NO:9), followed by 0.5 μM U46619 stimulation and FITC-PAC1 labeling. Trace (d) depicts platelets incubated with 150 μM of the G13SR2pep, followed by 0.5 μM U46619 stimulation and FITC-PAC1 labeling.
Subsequent experiments examined the effect of G13SR2pep, (SEQ ID NO:5) on human platelet α11bβ3 integrin activation as measured by FITC-PAC-1 antibody binding.

“VGGQRSERKRWFECFDS [G13SR2pep, non-myristoylated G13 Switch Region 2 peptide]” was tested, and the RhoA activation (RhoA) was “did not alter”, the “platelet aggregation induced by the divalent cation ionophore A23187” value (human platelets; 150 μM peptide, 10 μM A23187) was “capable of blocking” and the “inhibition of human platelet aggregation stimulated by U46619” value (human platelets; 75-150 μM G13SR2pep (Random Peptide 500 μM), 0.5 μM U46619) was “dose-dependent inhibition”. For the same sequence, the “inhibition of human platelet aggregation stimulated by ADP” value (human platelets; 75-150 μM G13SR2pep (Random Peptide 500 μM), 10 μM ADP) was “dose-dependent inhibition”, the “inhibition of human platelet aggregation stimulated by TRAP1” value (human platelets; 75-150 μM G13SR2pep (Random Peptide 500 μM), 15 μM TRAP1) was “dose-dependent inhibition” and the “inhibition of human platelet aggregation stimulated by TRAP4” value (human platelets; 75-150 μM G13SR2pep (Random Peptide 500 μM), 50 μM TRAP4) was “dose-dependent inhibition”. The “kindlin 3 in affinity column eluate” value (kindlin-3) was “purified”, the bleeding time (CD1 mice) was “increased bleeding times; also recorded: substantially increases” and the “α11bβ3 in affinity column eluate (interaction with peptide)” value (α11bβ3 integrin [1]) was “directly interacts”. For the same sequence, the Src activation (Src) was “did not alter”, the calcium mobilization (calcium mobilization) was “did not alter” and the cAMP levels (cAMP levels) was “did not alter”. The “talin in affinity column eluate” value (talin; solubilized human platelets, immunoblot, whole talin (220 kD), talin head domain (47 kD)) was “purified”, the “binding to talin head domain” value (talin; α11bβ3-talin-kindlin 3 complex dissociated, affinity column eluates) was “binding partner” and the “inhibition of U46619-mediated activation of α11bβ3 integrin” value (α11bβ3 integrin [2]) was “dramatically inhibited”.
